Key:
[1] = molecular target: Carbonic anhydrase 4 (Homo sapiens) (UniProt P22748)
[2] = molecular target: Carbonic anhydrase 13 (Mus musculus) (UniProt Q9D6N1); experiment: Inhibition of mouse CA13
[3] = molecular target: Carbonic anhydrase 14 (Homo sapiens) (UniProt Q9ULX7)
[4] = molecular target: Carbonic anhydrase 5B, mitochondrial (Homo sapiens) (UniProt Q9Y2D0)
[5] = molecular target: Carbonic anhydrase 6 (Homo sapiens) (UniProt P23280)
[6] = molecular target: Carbonic anhydrase 5A, mitochondrial (Homo sapiens) (UniProt P35218)
[7] = molecular target: Carbonic anhydrase 12 (Homo sapiens) (UniProt O43570)
[8] = molecular target: Carbonic anhydrase 9 (Homo sapiens) (UniProt Q16790)
Description: Inhibition of human CA9 catalytic domain

[9] = molecular target: Carbonic anhydrase 7 (Homo sapiens) (UniProt P43166)
[10] = molecular target: Carbonic anhydrase 1 (Homo sapiens) (UniProt P00915)
Helicobacter pylori [11] = tested on: Helicobacter pylori
Description: Inhibition of Helicobacter pylori alpha CA

[12] = tested on: Methanosarcina thermophila
Description: Inhibition of Methanosarcina thermophila gamma CA

Helicobacter pylori [13] = tested on: Helicobacter pylori; remark: listed apart in the source
Description: Inhibition of Helicobacter pylori beta CA

Carbonic anhydrase 5A, mitochondrial (Homo sapiens), sequence (P35218 whole entry): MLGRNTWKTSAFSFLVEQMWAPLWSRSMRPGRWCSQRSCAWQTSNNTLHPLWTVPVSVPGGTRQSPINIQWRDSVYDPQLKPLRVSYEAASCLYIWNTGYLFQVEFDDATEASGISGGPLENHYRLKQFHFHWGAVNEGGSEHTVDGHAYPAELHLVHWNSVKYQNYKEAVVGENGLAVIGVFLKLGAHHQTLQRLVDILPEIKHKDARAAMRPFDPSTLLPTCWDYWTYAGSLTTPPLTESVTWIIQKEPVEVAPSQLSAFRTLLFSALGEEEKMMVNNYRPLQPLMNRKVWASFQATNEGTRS
Carbonic anhydrase 14 (Homo sapiens), sequence (Q9ULX7 whole entry): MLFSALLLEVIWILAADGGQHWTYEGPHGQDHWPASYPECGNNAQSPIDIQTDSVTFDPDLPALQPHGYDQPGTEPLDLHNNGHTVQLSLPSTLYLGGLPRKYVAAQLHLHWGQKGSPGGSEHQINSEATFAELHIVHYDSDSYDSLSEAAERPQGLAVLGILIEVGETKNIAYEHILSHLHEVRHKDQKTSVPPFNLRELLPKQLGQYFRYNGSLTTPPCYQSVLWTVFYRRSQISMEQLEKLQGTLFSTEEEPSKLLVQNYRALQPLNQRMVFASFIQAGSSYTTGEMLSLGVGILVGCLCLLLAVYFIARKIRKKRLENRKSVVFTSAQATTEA
Carbonic anhydrase 5B, mitochondrial (Homo sapiens), sequence (Q9Y2D0 whole entry): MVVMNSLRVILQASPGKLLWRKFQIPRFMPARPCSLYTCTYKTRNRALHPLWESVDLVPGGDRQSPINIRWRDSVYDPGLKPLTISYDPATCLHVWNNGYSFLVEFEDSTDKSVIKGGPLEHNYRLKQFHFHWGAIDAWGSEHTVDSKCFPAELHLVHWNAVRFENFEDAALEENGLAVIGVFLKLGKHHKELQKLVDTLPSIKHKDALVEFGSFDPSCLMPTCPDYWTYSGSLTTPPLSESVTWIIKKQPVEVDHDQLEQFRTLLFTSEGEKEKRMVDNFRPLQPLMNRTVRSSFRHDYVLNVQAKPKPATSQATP
Carbonic anhydrase 6 (Homo sapiens), sequence (P23280 whole entry): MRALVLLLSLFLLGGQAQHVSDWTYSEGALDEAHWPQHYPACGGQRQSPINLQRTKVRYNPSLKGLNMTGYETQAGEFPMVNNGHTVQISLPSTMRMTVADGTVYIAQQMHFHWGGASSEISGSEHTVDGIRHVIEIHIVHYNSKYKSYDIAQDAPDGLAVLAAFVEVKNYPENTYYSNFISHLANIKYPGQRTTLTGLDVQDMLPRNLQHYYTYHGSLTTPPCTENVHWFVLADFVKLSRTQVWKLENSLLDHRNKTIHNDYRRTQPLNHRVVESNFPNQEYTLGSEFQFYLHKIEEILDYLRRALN
Carbonic anhydrase 13 (Mus musculus), sequence (Q9D6N1 whole entry, looked up): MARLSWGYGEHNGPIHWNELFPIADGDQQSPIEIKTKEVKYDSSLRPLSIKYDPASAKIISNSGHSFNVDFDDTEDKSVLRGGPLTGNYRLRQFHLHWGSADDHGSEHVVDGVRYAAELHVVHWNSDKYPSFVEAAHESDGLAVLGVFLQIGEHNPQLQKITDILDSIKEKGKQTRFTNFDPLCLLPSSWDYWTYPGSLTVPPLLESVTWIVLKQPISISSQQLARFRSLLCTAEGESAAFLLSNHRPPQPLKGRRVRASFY
Carbonic anhydrase 4 (Homo sapiens), sequence (P22748 whole entry): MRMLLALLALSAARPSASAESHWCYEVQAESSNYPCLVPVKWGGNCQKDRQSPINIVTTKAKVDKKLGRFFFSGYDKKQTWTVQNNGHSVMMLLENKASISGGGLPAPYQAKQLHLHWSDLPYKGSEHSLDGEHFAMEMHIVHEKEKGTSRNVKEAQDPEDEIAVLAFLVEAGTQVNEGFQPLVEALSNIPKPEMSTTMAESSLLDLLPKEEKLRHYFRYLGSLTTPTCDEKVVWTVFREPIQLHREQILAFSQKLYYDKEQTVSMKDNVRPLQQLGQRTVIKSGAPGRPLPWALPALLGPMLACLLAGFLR
Carbonic anhydrase 12 (Homo sapiens), sequence (O43570 whole entry): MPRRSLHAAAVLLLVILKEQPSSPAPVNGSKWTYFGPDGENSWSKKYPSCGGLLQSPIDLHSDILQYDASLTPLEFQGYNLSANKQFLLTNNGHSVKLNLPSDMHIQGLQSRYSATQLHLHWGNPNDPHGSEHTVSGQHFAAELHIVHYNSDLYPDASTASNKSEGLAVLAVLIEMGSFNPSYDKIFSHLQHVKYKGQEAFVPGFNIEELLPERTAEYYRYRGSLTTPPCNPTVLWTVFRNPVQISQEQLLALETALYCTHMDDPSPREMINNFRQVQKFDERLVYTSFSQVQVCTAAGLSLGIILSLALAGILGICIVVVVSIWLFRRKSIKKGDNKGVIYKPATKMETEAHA
Carbonic anhydrase 7 (Homo sapiens), sequence (P43166 whole entry): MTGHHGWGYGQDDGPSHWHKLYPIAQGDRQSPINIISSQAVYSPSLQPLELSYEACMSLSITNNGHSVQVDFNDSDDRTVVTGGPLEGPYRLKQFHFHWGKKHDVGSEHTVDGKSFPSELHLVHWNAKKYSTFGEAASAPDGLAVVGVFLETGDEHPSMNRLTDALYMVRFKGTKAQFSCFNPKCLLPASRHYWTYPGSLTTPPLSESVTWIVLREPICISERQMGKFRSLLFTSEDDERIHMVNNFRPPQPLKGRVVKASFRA
Carbonic anhydrase 1 (Homo sapiens), sequence (P00915 2-261 limits assumed): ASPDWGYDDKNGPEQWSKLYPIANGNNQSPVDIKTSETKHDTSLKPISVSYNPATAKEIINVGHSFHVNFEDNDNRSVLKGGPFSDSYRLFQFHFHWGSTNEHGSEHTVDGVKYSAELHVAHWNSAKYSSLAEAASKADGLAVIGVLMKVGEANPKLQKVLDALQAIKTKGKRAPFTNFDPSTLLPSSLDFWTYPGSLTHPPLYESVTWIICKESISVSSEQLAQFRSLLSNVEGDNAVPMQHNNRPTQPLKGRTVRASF

Structure (SMILES): NS(=O)(=O)c1cc2c(cc1Cl)NC(C(Cl)Cl)NS2(=O)=O (stereo unspecified)
- Kinact [1]: 427 nM
- Kinact [2]: 3.89 µM
- Kinact [3]: 4100 nM
- Kinact [4]: 603 nM
- Kinact [5]: 3660 nM
- Kinact [6]: 4220 nM
- Kinact [7]: 355 nM
- Kinact [8]: 367 nM

Structure (SMILES): NS(=O)(=O)c1cc(C(=O)O)c(NCC2CCCO2)cc1Cl (stereo unspecified)
- Kinact [9]: 513 nM
- Kinact [10]: 62 nM
- Kinact [6]: 499 nM

Structure (SMILES): CC(=O)/N=c1/sc(S(N)(=O)=O)nn1C
- Kinact (Helicobacter pylori [11]): 225 nM
- Kinact [12]: 140 nM
- Kinact (Helicobacter pylori [13]): 176 nM

Structure (SMILES): CCN[C@H]1CN(CCCOC)S(=O)(=O)c2sc(S(N)(=O)=O)cc21
- Kinact [3]: 24 nM
- Kinact [4]: 30 nM
- Kinact [5]: 0.9 nM
- Kinact (Helicobacter pylori [11]): 210 nM
- Kinact [12]: 460 nM
- Kinact [6]: 50 nM
- Kinact (Helicobacter pylori [13]): 128 nM

Source: ChEMBL document CHEMBL1149542, “Carbonic anhydrase inhibitors: inhibition of human, bacterial, and archaeal isozymes with benzene-1,3-disulfonamides--solution and crystallographic studies” (Bioorg Med Chem Lett, 2007)
